The values below come from patent US9029414B2, “Triterpenoid compounds and methods of use thereof” (Biotechnology Research Corporation, priority 2008, dated 2015).

One assay relates to cortical neurons. Briefly: Cortical neuron survival assay against glutamate excitotoxicity (LDH). The assay is classed as cell-based, Sprague-Dawley rats. The following applies: 30 μM 24 hrs, glutamate 10-200 μM 20 min; at high concentrations of glutamate. As to the method: Hippocampal neurons/cortical neurons were prepared from embryonic day 18 Sprague-Dawley rats. After the cortices had been removed from the brain, isolated cells were plated onto Poly d-Lysine (PDL) (P0899, Sigma)-coated 48 well plates (150687, NUNC) at a density of 2×10^5 cell per well using Neurobasal Medium (NB) (21103-049, Gibco) with B27 supplement (17504-044, Gibco), penicillin/streptomycin (15140, Gibco) and 1 mM L-glutamine (25030, Gibco). The cell culture was incubated at 37° C. in a humidified atmosphere of 5% CO2 in air. Medium was changed to growth medium (Neurobasal Medium with penicillin/streptomycin and B27 supplement) after 3 hours. Half medium was changed with growth medium every 2-3 days to maintain the cells until day 10 in vitro (DIV 10). Serial dilutions of samples were prepared in growth medium and DMSO was used as vehicle control. For pre-treating assay, half of the medium was removed from wells, and equal amount of diluted samples were replaced. Cells were then incubated for 2 hours at 37° C. in a humidified atmosphere of 5% CO2 in air. […] Afterwards, cells were incubated in growth medium for 18-24 hours and detected with Cytotoxicity Detection Kit (1644793, Roche).
Cortical neurons were pre-treated with DA021 or DA034 and subsequently subjected to varying concentrations of glutamate (10-200 μM). […] LDH release into the medium was then measured.

For another assay, the target named is T1, EP1 receptor (Homo sapiens, UniProt P34995).
T1 sequence (P34995 1-402): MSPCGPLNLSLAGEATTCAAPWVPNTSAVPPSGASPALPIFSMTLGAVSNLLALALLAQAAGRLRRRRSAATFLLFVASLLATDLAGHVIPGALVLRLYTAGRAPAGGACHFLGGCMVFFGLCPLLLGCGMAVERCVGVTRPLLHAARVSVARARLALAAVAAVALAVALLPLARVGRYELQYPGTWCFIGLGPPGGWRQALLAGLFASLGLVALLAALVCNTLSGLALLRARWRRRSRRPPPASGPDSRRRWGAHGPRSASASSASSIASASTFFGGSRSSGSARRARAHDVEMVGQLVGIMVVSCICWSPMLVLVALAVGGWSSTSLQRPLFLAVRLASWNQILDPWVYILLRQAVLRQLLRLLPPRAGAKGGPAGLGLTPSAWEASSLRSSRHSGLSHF
Briefly: Radioligand competition binding assay, EP1. The following applies: EP1, target PGE2; compound at 10 μM in duplicate; read-out: % inhibition of control specific binding. How it is done:
(§1) DA001 was further evaluated against 32 receptor binding assays. Radioligand competition assays were conducted whereby DA001 was tested at one concentration (10 uM) in duplicate. […] It could compete with the radioligand [^3H] PGE2 binding at the EP1 and EP4 receptors, and weakly competed with the EP2 and FP receptors.
(§2) To determine the targets of DA compounds, the compound was assessed in binding assays for the family of prostanoid receptors. Both compounds were tested at a single concentration (10 μM) in duplicate. DA001 and DA021 inhibit the ligand binding of prostaglandin E2 receptors EP1, EP2 and EP4 and moderately to prostaglandin (PGF) to its receptor (FP), but not prostaglandin I (PGI2), thromoboxane A and prostaglandin D2 to their receptors.

Another assay has as its target IP receptor (Homo sapiens, UniProt P43119). Briefly: Radioligand competition binding assay, IP. Particulars: target PGI, compound at 10 μM in duplicate, read-out: % inhibition of control specific binding. As to the method: as §1, §2
For orientation: In a radioligand displacement assay an active substance lowers the binding of a labelled ligand.

Another assay has as its target TP receptor (Homo sapiens, UniProt P21731). Briefly: Radioligand competition binding assay, TP. The following applies: target Thromoboxanes A, compound at 10 μM in duplicate, read-out: % inhibition of control specific binding. As to the method: as §1, §2

TP receptor, sequence (P21731 whole entry): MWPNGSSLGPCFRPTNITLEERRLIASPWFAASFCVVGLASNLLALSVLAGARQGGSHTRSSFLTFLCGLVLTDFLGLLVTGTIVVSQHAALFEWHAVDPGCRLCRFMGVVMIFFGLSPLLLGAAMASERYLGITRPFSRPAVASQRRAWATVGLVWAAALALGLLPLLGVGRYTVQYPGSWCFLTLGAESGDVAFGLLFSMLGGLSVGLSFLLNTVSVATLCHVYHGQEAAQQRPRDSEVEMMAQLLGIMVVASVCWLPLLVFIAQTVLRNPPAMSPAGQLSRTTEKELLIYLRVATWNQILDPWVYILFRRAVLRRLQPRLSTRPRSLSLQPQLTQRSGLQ
IP receptor, sequence (P43119 whole entry): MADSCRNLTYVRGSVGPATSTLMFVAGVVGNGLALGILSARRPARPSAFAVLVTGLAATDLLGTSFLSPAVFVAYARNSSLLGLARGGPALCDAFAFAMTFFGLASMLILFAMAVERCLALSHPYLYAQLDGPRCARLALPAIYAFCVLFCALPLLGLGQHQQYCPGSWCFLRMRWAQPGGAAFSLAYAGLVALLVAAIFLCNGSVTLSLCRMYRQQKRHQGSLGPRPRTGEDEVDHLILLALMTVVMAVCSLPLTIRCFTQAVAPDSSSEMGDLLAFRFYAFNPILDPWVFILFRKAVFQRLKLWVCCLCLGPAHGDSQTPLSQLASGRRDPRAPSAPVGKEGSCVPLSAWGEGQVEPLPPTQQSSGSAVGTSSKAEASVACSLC

As for `CC(=O)OC[C@]12CC[C@@H](C3(C)CO3)C1C1CCC3[C@@]4(C)CC[C@H](O)[C@@](C)(CO)[C@@H]4CC[C@@]3(C)[C@]1(C)CC2` (some centres unmarked) [DA034], the “cell death (LDH release) vs DMSO control” value in the assay with cortical neurons is listed as “significant reduction in cell death”.

Regarding `C=C(C)[C@@H]1CC[C@]2(/C=N/O)CC[C@]3(C)C(CCC4[C@@]5(C)CCC(=O)[C@@](C)(CO)[C@@H]5CC[C@]43C)C12` (some centres unmarked) [DA021], the “cell death (LDH release) vs DMSO control” value in the assay on cortical neurons is on record as “significant reduction in cell death”. For the same molecule, the inhibition (commonly the drop in the measured response relative to a control, in per cent) at 10 µM is 31% at EP1 receptor, 9% at IP receptor and 17% at TP receptor.

Regarding `C=C(C)[C@@H]1CC[C@]2(C(=O)O)CC[C@]3(C)C(CC[C@@H]4[C@@]5(C)CC[C@H](O[C@@H]6OC[C@H](O)[C@H](O)[C@H]6O[C@@H]6O[C@@H](C)[C@H](O)[C@@H](O)[C@H]6O)[C@@](C)(CO)[C@@H]5CC[C@]43C)[C@@H]12` (stereo partly drawn) [DA001, 3-O-[α-L-rhamnopyranosyl-(1→2)-α-L-arabinopyranosyl]-3,23-dihydroxy-20(29)-lupen-28-oic acid], the inhibition at 10 µM was 52% on EP1 receptor, 0% at IP receptor and 17% on TP receptor.
